13 molecules from ChEMBL document CHEMBL4330064, “Phytoestrogens and their synthetic analogues as substrate mimic inhibitors of CYP1B1” (Eur J Med Chem, 2019) can be followed below.

For series [1], the target named is T1, Cytochrome P450 1B1 (Homo sapiens, UniProt Q16678).
T1 sequence (Q16678 whole entry): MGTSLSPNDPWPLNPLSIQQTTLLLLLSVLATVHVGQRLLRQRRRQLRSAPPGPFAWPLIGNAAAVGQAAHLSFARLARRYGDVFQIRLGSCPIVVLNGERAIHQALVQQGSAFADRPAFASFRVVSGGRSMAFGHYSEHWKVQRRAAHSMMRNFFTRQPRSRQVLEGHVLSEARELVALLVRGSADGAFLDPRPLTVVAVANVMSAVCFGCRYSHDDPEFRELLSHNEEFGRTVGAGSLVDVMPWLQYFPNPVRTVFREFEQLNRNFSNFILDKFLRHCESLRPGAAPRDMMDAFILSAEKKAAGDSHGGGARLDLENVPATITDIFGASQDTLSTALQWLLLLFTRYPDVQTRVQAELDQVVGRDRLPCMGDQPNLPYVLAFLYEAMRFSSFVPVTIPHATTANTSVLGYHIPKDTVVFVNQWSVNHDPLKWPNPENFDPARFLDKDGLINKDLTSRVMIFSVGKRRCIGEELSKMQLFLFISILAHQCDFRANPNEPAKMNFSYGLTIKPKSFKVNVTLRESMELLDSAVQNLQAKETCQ
The experiment in a line: Inhibition of human CYP1B1 using 7-Ethoxyresorufin as substrate after 30 mins in presence of NADP+ by EROD assay.

In series [2] the target is T2, Cytochrome P450 1A2 (Homo sapiens, UniProt P05177).
T2 sequence (P05177 whole entry): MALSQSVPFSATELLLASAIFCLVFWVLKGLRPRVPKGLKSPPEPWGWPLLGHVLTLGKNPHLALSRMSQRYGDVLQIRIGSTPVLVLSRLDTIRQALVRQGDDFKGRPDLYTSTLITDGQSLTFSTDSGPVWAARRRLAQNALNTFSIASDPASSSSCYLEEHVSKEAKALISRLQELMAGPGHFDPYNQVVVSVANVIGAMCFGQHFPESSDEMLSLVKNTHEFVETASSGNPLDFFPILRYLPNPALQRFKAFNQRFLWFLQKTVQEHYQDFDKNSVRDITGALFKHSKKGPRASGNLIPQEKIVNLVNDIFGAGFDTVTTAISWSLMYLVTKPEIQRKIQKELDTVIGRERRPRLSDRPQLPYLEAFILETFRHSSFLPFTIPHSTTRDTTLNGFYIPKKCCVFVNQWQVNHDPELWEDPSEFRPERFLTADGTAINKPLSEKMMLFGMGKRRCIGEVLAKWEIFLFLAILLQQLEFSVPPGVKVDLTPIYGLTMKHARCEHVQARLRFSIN
The experiment in a line: Inhibition of human CYP1A2 using 7-Ethoxyresorufin as substrate after 50 mins in presence of NADP+ by EROD assay. It counts as ADME.

The target of series [3] is T3, Cytochrome P450 1A1 (Homo sapiens, UniProt P04798). The experiment in a line: Inhibition of human CYP1A1 using 7-Ethoxyresorufin as substrate after 15 mins in presence of NADP+ by EROD assay. In kind it is ADME.
T3 sequence (P04798 whole entry): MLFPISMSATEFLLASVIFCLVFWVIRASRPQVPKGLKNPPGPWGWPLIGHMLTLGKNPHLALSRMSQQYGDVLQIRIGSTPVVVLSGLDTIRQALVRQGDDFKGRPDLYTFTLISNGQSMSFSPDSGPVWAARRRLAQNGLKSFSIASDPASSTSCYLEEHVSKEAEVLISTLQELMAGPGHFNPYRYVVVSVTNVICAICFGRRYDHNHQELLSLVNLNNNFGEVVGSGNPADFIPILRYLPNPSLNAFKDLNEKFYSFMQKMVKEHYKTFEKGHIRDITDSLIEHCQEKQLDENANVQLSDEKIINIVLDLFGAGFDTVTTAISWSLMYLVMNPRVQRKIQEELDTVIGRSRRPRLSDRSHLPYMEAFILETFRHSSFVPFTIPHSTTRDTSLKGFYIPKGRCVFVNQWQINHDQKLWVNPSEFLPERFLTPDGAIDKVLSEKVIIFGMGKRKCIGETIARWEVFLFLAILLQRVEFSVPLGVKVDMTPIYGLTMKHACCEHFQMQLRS
Series [4] concerns the target T3, Cytochrome P450 1A1. The experiment in a line: Inhibition of […] CYP1A1 expressed in Escherichia coli DH5alpha cell membranes coexpressing human NADPH-cytochrome P450 reductase using 7-Ethoxyresorufin as substrate preincubated for 3 mins followed by NADPH addition measured after 10 mins by EROD assay. In kind it is ADME.
Series [5] has as its target T2, Cytochrome P450 1A2. The experiment in a line: Inhibition of […] CYP1A2 expressed in Escherichia coli DH5alpha cell membranes coexpressing human NADPH-cytochrome P450 reductase using 7-Ethoxyresorufin as substrate preincubated for 3 mins followed by NADPH addition measured after 10 mins by EROD assay. In kind it is ADME.
The target in series [6] is T1, Cytochrome P450 1B1. The experiment in a line: Inhibition of […] CYP1B1 expressed in Escherichia coli DH5alpha cell membranes coexpressing human NADPH-cytochrome P450 reductase using 7-Ethoxyresorufin as substrate preincubated for 3 mins followed by NADPH addition measured after 10 mins by EROD assay.
In series [7] the target is T1, Cytochrome P450 1B1. The experiment in a line: Mixed type inhibition of human CYP1B1 by EROD assay.
Series [8] deals with T1, Cytochrome P450 1B1.
Description: Inhibition of human CYP1B1 by EROD assay
Series [9] concerns the target T3, Cytochrome P450 1A1. The experiment in a line: Inhibition of human CYP1A1 using ethoxyresorufin as substrate by MROD assay. In kind it is ADME.
Series [10] deals with T3, Cytochrome P450 1A1. The experiment in a line: Inhibition of human CYP1A1 using ethoxyresorufin as substrate by EROD assay. It counts as ADME.
Series [11] deals with T1, Cytochrome P450 1B1. The experiment in a line: Inhibition of CYP1B1 in human HepG2 cells. In kind it is cell-based.
In series [12] the target is T1, Cytochrome P450 1B1. The experiment in a line: Inhibition of human CYP1B1 expressed in Escherichia coli DH5alpha cell membranes coexpressing human NADPH-cytochrome P450 reductase using 7-Ethoxyresorufin as substrate by EROD assay.
Series [13] concerns the target T3, Cytochrome P450 1A1. The experiment in a line: Inhibition of human CYP1A1 by EROD assay. It counts as ADME.
Series [14] concerns the target T1, Cytochrome P450 1B1. The experiment in a line: Inhibition of CYP1B1 in human MCF7 cells assessed as reduction in TCDD-induced CYP1B1-mediated EROD activity by EROD assay. It counts as cell-based.
The target of series [15] is T1, Cytochrome P450 1B1. The experiment in a line: Inhibition of CYP1B1 in human MCF7 cells assessed as reduction in DMBA-induced CYP1B1-mediated EROD activity by EROD assay. It counts as cell-based.

As for `COc1cc2c(=O)cc(-c3cccc(Br)c3)[nH]c2c2c(OC)cccc12`, the IC50 in [1] was 3.6 nM.
In the case of `COc1cc2c(=O)cc(-c3ccc(F)cc3)[nH]c2c2c(OC)cccc12`, the IC50 in series [2] was determined as 190 nM; in series [3], 10.5 nM; in series [1], 3.9 nM.
As to `COc1ccc(-c2cc(=O)c3cc(OC)c4cccc(OC)c4c3[nH]2)cc1`, the IC50 in series [1] was 4.1 nM.
`O=c1c(O)c(-c2ccc(O)c(O)c2)oc2cc(O)cc(O)c12` [QUERCETIN]: the INH in series [4] worked out at 77 µM; in [5], 418 µM; in series [6], 23 µM.
In [7], `Oc1ccc(/C=C/c2cc(O)cc(O)c2)cc1` [RESVERATROL] came in with an inhibition constant Ki of 750 nM. In addition, the IC50 in series [8] is 1400 nM; in [9], 11000 nM; in [10], 23000 nM.
For the molecule `O=c1cc(-c2ccc(O)c(O)c2)oc2cc(O)cc(O)c12` [LUTEOLIN], the results for the INH in series [4], in [5] and in series [6] were 1.2 µM, 8.9 µM and 0.36 µM, respectively.
Consider `COc1ccc2cc3[n+](cc2c1OC)CCc1cc2c(cc1-3)OCO2` [BERBERINE], for which the values for the IC50 in series [11] and in series [12] were 2500 nM and 94 nM, respectively.
For `COc1cc(-c2oc3cc(O)cc(O)c3c(=O)c2O)ccc1O` [ISORHAMNETIN], the figures for the INH in series [4], in series [5] and in series [6] were 25 µM, 137 µM and 30.1 µM, respectively.
With `COc1ccc2c(c(OC)cc3c(=O)cc(-c4ccc(F)cc4)oc32)c1OC`, the half-inhibitory concentration (IC50) in series [13] stood at 1 nM.
Turning to `O=c1cc(-c2ccccc2)oc2cc(O)cc(O)c12` [CHRYSIN], the values for the INH in series [4], in [5] and in [6] were 6.2 µM, 0.42 µM and 0.28 µM, respectively.
In [4], `O=c1c(O)c(-c2ccc(O)cc2)oc2cc(O)cc(O)c12` [KAEMPFEROL] returned an INH of 52 µM.
Turning to `C[C@]12CCCCC1=CC[C@@H]1[C@@H]2CC[C@]2(C)C(=O)[C@H](F)C[C@@H]12`, the values for the concentration for half-maximal inhibition (IC50) in [14] and in series [15] were 2500 nM and 500 nM, respectively.
The molecule `O=c1cc(-c2ccc(O)cc2)oc2cc(O)cc(O)c12` [APIGENIN] had an INH in series [4] of 4.1 µM.
